Data: the NIST ThermoML archive (doi:10.1021/je900212d)

Experiments:
[1] = xn = mol fraction of the nth substance listed; conditions: 101 kPa, Liquid
[2] = 101.33 kPa, Liquid

ClCCCl [1,2-dichloroethane] + CCCO
[1]
Conditions	mass density [kg/m3]	viscosity [mPa·s]
288.15 K, x2 = 0.1054	1211	0.8441
288.15 K, x2 = 0.2095	1166.4	0.8809
288.15 K, x2 = 0.3124	1121.8	0.9238
288.15 K, x2 = 0.4141	1078.4	0.998
288.15 K, x2 = 0.5146	1032.4	1.1
288.15 K, x2 = 0.6139	986	1.256
288.15 K, x2 = 0.7121	942.8	1.464
288.15 K, x2 = 0.8092	895.4	1.726
288.15 K, x2 = 0.9051	843.5	2.029
293.15 K, x2 = 0.1054	1205	0.785
293.15 K, x2 = 0.2096	1159.7	0.8086
293.15 K, x2 = 0.3126	1116.2	0.8504
293.15 K, x2 = 0.4143	1072.1	0.9115
293.15 K, x2 = 0.5148	1026.6	0.9988
293.15 K, x2 = 0.6141	980.6	1.139
293.15 K, x2 = 0.7123	938.6	1.31
293.15 K, x2 = 0.8093	890.5	1.534
293.15 K, x2 = 0.9052	839.4	1.795
298.15 K, x2 = 0.1054	1199.2	0.7324
298.15 K, x2 = 0.2095	1154.4	0.7472
298.15 K, x2 = 0.3124	1109.3	0.7831
298.15 K, x2 = 0.4141	1067.1	0.8368
298.15 K, x2 = 0.5146	1021.3	0.911
298.15 K, x2 = 0.614	976.2	1.035
298.15 K, x2 = 0.7122	934	1.176
298.15 K, x2 = 0.8092	885.9	1.37
298.15 K, x2 = 0.9052	836.3	1.603
303.15 K, x2 = 0.1056	1192.6	0.6845
303.15 K, x2 = 0.2099	1147.7	0.7003
303.15 K, x2 = 0.3129	1104.2	0.7255
303.15 K, x2 = 0.4146	1061.1	0.7704
303.15 K, x2 = 0.5151	1016	0.8342
303.15 K, x2 = 0.6144	970.5	0.9344
303.15 K, x2 = 0.7125	929.7	1.061
303.15 K, x2 = 0.8095	882.6	1.228
303.15 K, x2 = 0.9053	832.8	1.441
308.15 K, x2 = 0.1057	1183.4	0.64
308.15 K, x2 = 0.21	1140.7	0.6502
308.15 K, x2 = 0.3131	1097.2	0.6731
308.15 K, x2 = 0.4149	1054.9	0.7116
308.15 K, x2 = 0.5154	1009.5	0.7657
308.15 K, x2 = 0.6147	964	0.8541
308.15 K, x2 = 0.7128	924.3	0.9603
308.15 K, x2 = 0.8097	877.3	1.105
308.15 K, x2 = 0.9054	827.5	1.303
313.15 K, x2 = 0.1058	1174.9	0.6002
313.15 K, x2 = 0.2103	1133.5	0.6056
313.15 K, x2 = 0.3134	1089	0.6256
313.15 K, x2 = 0.4152	1047.4	0.6588
313.15 K, x2 = 0.5158	1004	0.706
313.15 K, x2 = 0.615	956.7	0.7849
313.15 K, x2 = 0.7131	918.9	0.8728
313.15 K, x2 = 0.8099	870.1	0.9952
313.15 K, x2 = 0.9055	821.5	1.176

O=Cc1ccccc1 [benzaldehyde] + ClCCCl
[1]
Conditions	mass density [kg/m3]	viscosity [mPa·s]
288.15 K, x1 = 0.1005	1233	0.9491
288.15 K, x1 = 0.2068	1207.2	1.034
288.15 K, x1 = 0.2964	1186.5	1.097
288.15 K, x1 = 0.3902	1166	1.171
288.15 K, x1 = 0.4888	1146.4	1.27
288.15 K, x1 = 0.5923	1125.5	1.348
288.15 K, x1 = 0.7012	1107.6	1.454
288.15 K, x1 = 0.8159	1086.7	1.58
288.15 K, x1 = 0.9061	1070.6	1.66
293.15 K, x1 = 0.1007	1227.6	0.8854
293.15 K, x1 = 0.2072	1200	0.9592
293.15 K, x1 = 0.2969	1180.5	1.017
293.15 K, x1 = 0.3909	1161.8	1.085
293.15 K, x1 = 0.4894	1139.5	1.168
293.15 K, x1 = 0.5929	1119.9	1.242
293.15 K, x1 = 0.7017	1102.2	1.335
293.15 K, x1 = 0.8163	1082	1.445
293.15 K, x1 = 0.9063	1066.4	1.517
298.15 K, x1 = 0.1006	1220.5	0.8213
298.15 K, x1 = 0.2069	1196.1	0.8951
298.15 K, x1 = 0.2965	1174.6	0.9471
298.15 K, x1 = 0.3904	1155.5	1.008
298.15 K, x1 = 0.4889	1133.4	1.08
298.15 K, x1 = 0.5924	1117.3	1.151
298.15 K, x1 = 0.7013	1098.6	1.233
298.15 K, x1 = 0.816	1077.9	1.328
298.15 K, x1 = 0.9061	1063.1	1.394
303.15 K, x1 = 0.1009	1214.3	0.7706
303.15 K, x1 = 0.2074	1190	0.8362
303.15 K, x1 = 0.2972	1169.8	0.8848
303.15 K, x1 = 0.3911	1150.1	0.9515
303.15 K, x1 = 0.4897	1126.5	1.003
303.15 K, x1 = 0.5932	1112.7	1.07
303.15 K, x1 = 0.702	1094.4	1.143
303.15 K, x1 = 0.8165	1073.2	1.225
303.15 K, x1 = 0.9064	1058.5	1.285
308.15 K, x1 = 0.1011	1206.5	0.726
308.15 K, x1 = 0.2078	1182.6	0.7824
308.15 K, x1 = 0.2976	1162.9	0.828
308.15 K, x1 = 0.3917	1144.1	0.8897
308.15 K, x1 = 0.4903	1121	0.9346
308.15 K, x1 = 0.5937	1107.8	0.998
308.15 K, x1 = 0.7025	1091	1.067
308.15 K, x1 = 0.8168	1068.5	1.135
308.15 K, x1 = 0.9066	1053	1.189
313.15 K, x1 = 0.1013	1198	0.6795
313.15 K, x1 = 0.2083	1173.6	0.7327
313.15 K, x1 = 0.2983	1153.9	0.777
313.15 K, x1 = 0.3924	1136.7	0.8272
313.15 K, x1 = 0.491	1115.5	0.8725
313.15 K, x1 = 0.5945	1102.2	0.9318
313.15 K, x1 = 0.7031	1085.5	0.9944
313.15 K, x1 = 0.8173	1063.1	1.054
313.15 K, x1 = 0.9069	1049.7	1.107

CCCO [propan-1-ol]
[2]
Conditions	mass density [kg/m3]	viscosity [mPa·s]
288.15 K	810.5	2.42
293.15 K	806.5	2.137
298.15 K	803.2	1.894
303.15 K	799.3	1.684
308.15 K	795.2	1.504
313.15 K	790.4	1.352
